Data set [1] concerns Fadu cell line. Description: Additional in vitro IC50 tests (Table 3). In kind it is cell-based. Conditions: Homo sapiens. As for the experimental part:
(§1) Cell lines were maintained according to the instructions provided by ATCC (https://www.lgcstandards-atcc.org/) in a 5% CO2 humidified incubator maintained at 37° C. temperature. Effects of compounds on cell viability were measured via CellTiter-Glo® luminescent cell viability assay (Promega, Madison, WI, USA) Cells were plated at 1000 cells/well onto a flat-bottomed, white 96 well plate (BRANDplates, cat. no.: 781965). […] After the treatment, medium was removed and CellTiter-Glo® reagent was added. The luminescence signal was recorded using a microplate reader (BioTek Synergy 2 Multi-Mode Reader, BioTek, Winooski, VT, USA).
(§2) Cell viability data (% of untreated control cells) was evaluated with Microsoft Excel. Dose-response curves (using a non-linear regression model, log (inhibitor) vs response, variable slope) were generated and IC50 values were determined using Graph Pad Prism 5.02 software (GraphPad Software, San Diego, CA, USA).

Data set [2] relates to SCC-25 cell line. Description: Additional in vitro IC50 tests (Table 3). The data set is classed as cell-based. Conditions: Homo sapiens. On the procedure:
as §1, §2

Data set [3] has as its system H2228 cell line. Description: Additional in vitro IC50 tests (Table 3). The data set is classed as cell-based. To be noted: Homo sapiens, NCI-H2228. On the procedure: as §1, §2
Data set [4] has as its system Detroit 562 cell line. Description: Additional in vitro IC50 tests (Table 3). In kind it is cell-based. Conditions: Homo sapiens. On the procedure:
as §1, §2

The subject of data set [5] is EBC-1 cell line. Description: Additional in vitro IC50 tests (Table 3). The data set is classed as cell-based. To be noted: Homo sapiens. On the procedure:
as §1, §2

For data set [6], the system named is Panc1 pancreatic cancer cell line. Description: CellTiter-Glo IC50 (Example 19). In kind it is cell-based. To be noted: Homo sapiens, PANC-1, 72 h. On the procedure:
Some representative imipridones and ONC212 as reference were further tested on the following human malignant cell lines: PC3 and LNCap (prostate carcinoma); BxPC3, MiaPaCa2 and Panc1 (pancreatic cancer); A549, HCC827, H1993 and H520 (lung carcinoma); MDA-MB-453 and MDA-MB-231 (breast cancer) (see Table 2 and FIGS. 1-11).
as §1, §2
On the technique in general: ATP-based viability assays read luminescence as a measure of living cells.

One may read the melting point as the temperature of the solid-liquid transition. Broadly, the IC50 is the concentration needed to halve the response being measured. As for `Nc1cccc(CN2C(=O)C3=C(CCN(Cc4cc(F)cc(F)c4)C3)N3CCN=C23)c1` [I/126, 4-(3-Aminobenzyl)-7-(3,5-difluorobenzyl)-2,4,6,7,8,9-hexahydroimidazo[1,2-a]pyrido[3,4-e]pyrimidin-5(1H)-one], the melting point is 114.5 °C. The 50% inhibitory concentration (IC50) in data set [1] was 290 nM. The IC50 in data set [2] was more than 300 nM. The IC50 in data set [3] was 269 nM. Also, in data set [4], the IC50 was found to be 103 nM. The IC50 in data set [5] worked out at 288 nM.

In turn, `[N-]=[N+]=Nc1cccc(CN2C(=O)C3=C(CCN(Cc4cc(F)cc(F)c4)C3)N3CCN=C23)c1` [I/127, 4-(3-Azidobenzyl)-7-(3,5-difluorobenzyl)-2,4,6,7,8,9-hexahydroimidazo[1,2-a]pyrido[3,4-e]pyrimidin-5(1H)-one] gave a melting point of 158 °C. The IC50 in data set [1] was 16 nM. Besides, in data set [2], the IC50 was 21 nM. In addition, the IC50 in data set [3] turned out to be 15 nM. Further, the IC50 in data set [4] was found to be 10 nM. In data set [5], the IC50 is 16 nM.

Regarding `O=C1C2=C(CCN(Cc3cc(F)cc(F)c3)C2)N2CCN=C2N1[C@@H](CO)c1ccc(F)cc1` [I/129 (R)], the melting point turned out to be 76 °C. For the same compound, the IC50 in data set [6] is 15 nM.

For the origin of these results see patent publication US20230295162A1 (EÖTVÖS LORÁND TUDOMÁNYEGYETEM, priority 2020, published 2023).
